Tests used:
[1] = tested on: splenocytes; assay: Splenocyte proliferation (3H-dT uptake) 48 hours after pseudofracture + laparotomy, NOX-100 by osmotic pump; format: in vivo, C57BL/6 mice; conditions: PF+laparotomy, NOX-100 30 mg/kg/hr over 48 hours by intraperitoneal osmotic pump, Mean±SEM
Protocol: The mice were divided into six groups (n=5-10):
(§1) Mice then also received either NOX-100 at a dose of 30 mg/kg/hr or vehicle (Veh) over the 48 hour time period. A controlled, continuous drug delivery rate was established through the use of osmotic pumps inserted intraperitoneally by laparotomy. Laparotomy with pump insertion was performed at the time of trauma (0 hours). Please note that the laparotomy procedure itself is considered a significant trauma. Mice in the ‘Unmanipulated controls’ group received no experimental manipulation.
Mice were euthanized at a 48 hour time point. Measurements at this late time point included assessment of splenocyte responses. Splenocyte proliferation, a well established parameter of immune dysfunction was assessed. […] Splenocyte proliferation was assessed using tritiated thymidine (^3H-dT) uptake as counts per minute (c.p.m.).

[2] = tested on: splenocytes; assay: Splenocyte interferon-gamma release (ELISA) 48 hours after pseudofracture + laparotomy, NOX-100 by osmotic pump; format: in vivo, C57BL/6 mice
Protocol: as §1
Additional measurements of splenocyte responses at the late 48 hr time point included assessment of splenocyte interferon-gamma release, an established parameter of immune dysfunction. […] Splenocyte culture supernatants were collected and assessed by ELISA.

[3] = tested on: splenocytes; assay: Splenocyte IFNγ release 48 hours after pseudofracture trauma, mice given 1400 W; format: in vivo; conditions: C57BL/6 mice, 1400 W 5 mg/kg intraperitoneally
Protocol: Control mice received no experimental manipulation.
Mice were euthanized at 6 and 48 hours.

Row | Compound | Splenocyte proliferation, tritiated thymidine uptake after antiCD3e stimulation ([1]; antiCD3e 1 μg/ml, p<0.05 vs vehicle (FIG. 9B)) | Splenocyte proliferation, tritiated thymidine uptake after concanavalin A stimulation ([1]; concanavalin A 2.5 μg/ml, p=0.062 vs vehicle (FIG. 9A)) | Post-injury decrease in splenocyte release of interferon gamma, effect of administration ([2]; 48 hrs post injury, NOX-100 30 mg/kg/hr (FIGS. 10A-B)) | Splenocyte interferon-gamma release after antiCD3e stimulation ([2]; PF+laparotomy, NOX-100 30 mg/kg/hr over 48 hours by intraperitoneal osmotic pump, antiCD3e 1 μg/ml, Mean±SEM, p<0.05 vs vehicle (FIG. 10B)) | Interferon-gamma release by splenocytes after antiCD3e stimulation following trauma ([3]; antiCD3e 1 μg/ml (FIG. 6)) | Concanavalin A stimulated splenocyte cytokine release (IFNγ) following trauma ([3]; concanavalin A 2.5 μg/ml (FIG. 4))
1 | CN(C[C@H](O)[C@@H](O)[C@H](O)[C@H](O)CO)C(=S)[S][Na] [NOX-100] | 45208.9±4890.5 c.p.m. | 33658.6±3787.9 c.p.m. | reversed | 604.70 ± 86.96 pg/mL |  | 
2 | CC(=N)NCc1cccc(CN)c1 [1400 W, N-(3-(Aminomethyl)benzyl)acetamidine] |  |  |  |  | no depression in cytokine release | not significantly reduced

Reference: US20130102662A1, “USE OF INDUCIBLE NITRIC OXIDE SYNTHASE INHIBITORS AND NITRIC OXIDE […] INHIBIT POST-[…] IMMUNODEPRESSION” (University of Pittsburgh - of the Commonwealth System of …, priority 2011, published 2013)
